Laboratory results published in ChEMBL document CHEMBL1144189, “Novel and potent oxazolidinone antibacterials featuring 3-indolylglyoxamide substituents” (Bioorg Med Chem Lett, 2008).
Converted amounts (≈) assume the structure as drawn.

Key:
Haemophilus influenzae = experiment: Antibacterial activity against beta-lactamase deficient Haemophilus influenzae DRCC 433; type: functional
Enterococcus faecalis [1] = experiment: Antibacterial activity against vancomycin-susceptible Enterococcus faecalis DRCC 034; type: functional
Staphylococcus aureus [2] = experiment: Antibacterial activity against methicillin-susceptible Staphylococcus aureus DRCC 035; type: functional
Staphylococcus aureus [3] = experiment: Antibacterial activity against methicillin-resistant Staphylococcus aureus DRCC 019; type: functional
Enterococcus faecalis [4] = experiment: Antibacterial activity against vancomycin-resistant Enterococcus faecalis DRCC 153; type: functional
Enterococcus faecium = experiment: Antibacterial activity against vancomycin-resistant Enterococcus faecium DRCC 154; type: functional
Moraxella catarrhalis = experiment: Antibacterial activity against beta-lactamase deficient Moraxella catarrhalis DRCC 300; type: functional
Staphylococcus aureus [5] = experiment: Antibacterial activity against Staphylococcus aureus DRCC 035 infected mouse systemic infection model administered orally for 1 day at 1 and 5 hrs post-infection and measured daily for 5 days; type: functional; conditions: po
Enterococcus faecalis [6] = experiment: Antibacterial activity against linezolid-resistant Enterococcus faecalis DRCC 632; type: functional
Staphylococcus aureus [7] = experiment: Antibacterial activity against linezolid-resistant Staphylococcus aureus DRCC 564; type: functional
[8] = Tmax in Swiss albino mouse at 10 mg/kg, po; type: ADME, organism-based; parameters: dose 10 mg/kg, route oral; conditions: in vivo
[9] = Half life in Swiss albino mouse at 10 mg/kg, po; type: ADME, organism-based; parameters: dose 10 mg/kg, route oral; conditions: in vivo
[10] = Cmax in Swiss albino mouse at 10 mg/kg, po; type: ADME, organism-based; parameters: dose 10 mg/kg, route oral; conditions: in vivo
[11] = AUC (0 to t) in Swiss albino mouse at 10 mg/kg, po; type: ADME, organism-based; parameters: dose 10 mg/kg, route oral; conditions: plasma
[12] = Drug elimination in Swiss albino mouse at 10 mg/kg, po; type: ADME, organism-based; parameters: dose 10 mg/kg, route oral; conditions: in vivo

| SMILES | MIC (Haemophilus influenzae) [µg/mL] | MIC (Enterococcus faecalis [1]) [µg/mL] | MIC (Staphylococcus aureus [2]) [µg/mL] | MIC (Staphylococcus aureus [3]) [µg/mL] | MIC (Enterococcus faecalis [4]) [µg/mL] | MIC (Enterococcus faecium) [µg/mL] | MIC (Moraxella catarrhalis) [µg/mL] | ED50 (Staphylococcus aureus [5]) [mg/kg] | MIC (Enterococcus faecalis [6]) [µg/mL] | MIC (Staphylococcus aureus [7]) [µg/mL] | Tmax [8] [h] | half-life [9] [min] | Cmax [10] [ng/mL] | AUC(0-t) [11] [ng·h/mL] | k el [12] [s⁻¹] |
| --- | --- | --- | --- | --- | --- | --- | --- | --- | --- | --- | --- | --- | --- | --- | --- |
| COc1ccc2[nH]cc(C(=O)C(=O)N3CCN(c4ccc(N5C[C@H](CNC(C)=O)OC5=O)cc4F)CC3)c2c1 | > 32 | 1 (≈ 1.86 µM) | 2 (≈ 3.72 µM) | 1 (≈ 1.86 µM) | 0.5 (≈ 0.93 µM) | 1 (≈ 1.86 µM) |  |  |  |  |  |  |  |  |  |
| COC(=S)NC[C@H]1CN(c2ccc(N3CCN(C(=O)C(=O)c4c[nH]c5ccc(Br)cc45)CC3)c(F)c2)C(=O)O1 | > 32 | 1 (≈ 1.62 µM) | 1 (≈ 1.62 µM) | 1 (≈ 1.62 µM) | 0.5 (≈ 0.808 µM) | 1 (≈ 1.62 µM) | 1 (≈ 1.62 µM) | > 30 | 2 (≈ 3.23 µM) | 2 (≈ 3.23 µM) |  |  |  |  |  |
| COC(=O)NC[C@H]1CN(c2ccc(N3CCN(C(=O)C(=O)c4c[nH]c5ccc(Br)cc45)CC3)c(F)c2)C(=O)O1 | > 32 | 1 (≈ 1.66 µM) | 1 (≈ 1.66 µM) | 0.5 (≈ 0.83 µM) | 0.5 (≈ 0.83 µM) | 1 (≈ 1.66 µM) | 2 (≈ 3.32 µM) |  | 32 (≈ 53.1 µM) | 16 (≈ 26.6 µM) |  |  |  |  |  |
| O=C(C(=O)N1CCN(c2ccc(N3C[C@H](CNC(=O)C4CC4)OC3=O)cc2F)CC1)c1c[nH]c2ccc(Br)cc12 | > 32 | 2 (≈ 3.27 µM) | 1 (≈ 1.63 µM) | 2 (≈ 3.27 µM) | 1 (≈ 1.63 µM) | 2 (≈ 3.27 µM) | 4 (≈ 6.53 µM) | 18.9 | 8 (≈ 13.1 µM) | 8 (≈ 13.1 µM) | 2 | 67.8 | 300 | 1260 | 0.000169 |
| O=C(C(=O)N1CCN(c2ccc(N3C[C@H](CNC(=O)C(Cl)Cl)OC3=O)cc2F)CC1)c1c[nH]c2ccc(Br)cc12 | > 32 | 1 (≈ 1.53 µM) | 1 (≈ 1.53 µM) | 1 (≈ 1.53 µM) | 0.25 (≈ 0.381 µM) | 0.5 (≈ 0.763 µM) | 2 (≈ 3.05 µM) | > 30 | 4 (≈ 6.1 µM) | 4 (≈ 6.1 µM) |  |  |  |  |  |
| O=C(C(=O)N1CCN(c2ccc(N3C[C@H](Cn4ccnn4)OC3=O)cc2F)CC1)c1c[nH]c2ccc(Br)cc12 | > 32 | 1 (≈ 1.68 µM) | 2 (≈ 3.35 µM) | 0.5 (≈ 0.838 µM) | 0.5 (≈ 0.838 µM) | 0.5 (≈ 0.838 µM) | 4 (≈ 6.71 µM) | 28.9 | 16 (≈ 26.8 µM) | 8 (≈ 13.4 µM) |  |  |  |  |  |
| O=C(C(=O)N1CCN(c2ccc(N3C[C@H](COc4ccon4)OC3=O)cc2F)CC1)c1c[nH]c2ccc(Br)cc12 | > 32 | 32 (≈ 52.3 µM) | > 32 | 32 (≈ 52.3 µM) | 32 (≈ 52.3 µM) | > 32 | 32 (≈ 52.3 µM) |  | 32 (≈ 52.3 µM) | 32 (≈ 52.3 µM) |  |  |  |  |  |
| CC(=O)NC[C@H]1CN(c2ccc(N3CCN(C(=O)C(=O)c4c[nH]c5ccc(C#N)cc45)CC3)c(F)c2)C(=O)O1 | > 32 | 1 (≈ 1.88 µM) | 1 (≈ 1.88 µM) | 1 (≈ 1.88 µM) | 0.5 (≈ 0.939 µM) | 1 (≈ 1.88 µM) |  | > 30 |  |  | 3 | 71.4 | 430 | 1900 | 0.000161 |
| CC(=O)NC[C@H]1CN(c2ccc(N3CCN(C(=O)C(=O)c4c[nH]c5ccc([N+](=O)[O-])cc45)CC3)c(F)c2)C(=O)O1 | > 32 | 1 (≈ 1.81 µM) | 2 (≈ 3.62 µM) | 1 (≈ 1.81 µM) | 1 (≈ 1.81 µM) | 2 (≈ 3.62 µM) |  |  |  |  |  |  |  |  |  |
| CC(=O)NC[C@H]1CN(c2ccc(N3CCN(C(=O)C(=O)c4c(C)[nH]c5ccccc45)CC3)c(F)c2)C(=O)O1 | > 32 | 1 (≈ 1.92 µM) | 2 (≈ 3.83 µM) | 1 (≈ 1.92 µM) | 1 (≈ 1.92 µM) | 2 (≈ 3.83 µM) |  |  |  |  |  |  |  |  |  |
| CC(=O)NC[C@H]1CN(c2ccc(N3CCN(C(=O)C(=O)c4cn(C)c5ccccc45)CC3)c(F)c2)C(=O)O1 | > 32 | 1 (≈ 1.92 µM) | 2 (≈ 3.83 µM) | 1 (≈ 1.92 µM) | 1 (≈ 1.92 µM) | 2 (≈ 3.83 µM) |  |  |  |  |  |  |  |  |  |
| CC(=O)NC[C@H]1CN(c2ccc(N3CCN(C(=O)C(=O)c4c[nH]c5ncccc45)CC3)c(F)c2)C(=O)O1 | > 32 | 1 (≈ 1.97 µM) | 2 (≈ 3.93 µM) | 1 (≈ 1.97 µM) | 0.5 (≈ 0.983 µM) | 1 (≈ 1.97 µM) |  | > 30 |  |  | 0.5 | 52.2 | 1050 | 3360 | 0.000219 |
| CC(=O)NC[C@H]1CN(c2ccc(N3CCN(C(=O)C(=O)c4c[nH]c5ccc(Br)cc45)CC3)c(F)c2)C(=O)O1 | > 32 | 1 (≈ 1.71 µM) | 1 (≈ 1.71 µM) | 0.5 (≈ 0.853 µM) | 0.5 (≈ 0.853 µM) | 1 (≈ 1.71 µM) | 2 (≈ 3.41 µM) | 27 | 8 (≈ 13.6 µM) | 8 (≈ 13.6 µM) | 2 | 130 | 680 | 2250 | 8.89e-05 |
| CC(=S)NC[C@H]1CN(c2ccc(N3CCN(C(=O)C(=O)c4c[nH]c5ccc(Br)cc45)CC3)c(F)c2)C(=O)O1 | > 32 | 0.5 (≈ 0.83 µM) | 0.5 (≈ 0.83 µM) | 0.25 (≈ 0.415 µM) | 0.12 (≈ 0.199 µM) | 0.25 (≈ 0.415 µM) | 2 (≈ 3.32 µM) | > 30 | 2 (≈ 3.32 µM) | 2 (≈ 3.32 µM) |  |  |  |  |  |
| O=C(C(=O)N1CCN(c2ccc(N3C[C@H](CNC(=O)C(F)F)OC3=O)cc2F)CC1)c1c[nH]c2ccc(Br)cc12 | > 32 | 1 (≈ 1.61 µM) | 2 (≈ 3.21 µM) | 1 (≈ 1.61 µM) | 0.25 (≈ 0.402 µM) | 0.5 (≈ 0.803 µM) | 2 (≈ 3.21 µM) | > 30 | 4 (≈ 6.43 µM) | 4 (≈ 6.43 µM) |  |  |  |  |  |
| CC(=O)NC[C@H]1CN(c2ccc(N3CCN(C(=O)C(=O)c4c[nH]c5ccccc45)CC3)c(F)c2)C(=O)O1 | 16 (≈ 31.5 µM) | 1 (≈ 1.97 µM) | 1 (≈ 1.97 µM) | 1 (≈ 1.97 µM) | 1 (≈ 1.97 µM) | 1 (≈ 1.97 µM) |  | 19.4 |  |  |  |  |  |  |  |
| CC(=O)NC[C@H]1CN(c2ccc(N3CCOCC3)c(F)c2)C(=O)O1 [LINEZOLID] | 8 (≈ 23.7 µM) |  |  | 1 (≈ 2.96 µM) |  | 2 (≈ 5.93 µM) | 4 (≈ 11.9 µM) | 5.3 | 32 (≈ 94.9 µM) | 32 (≈ 94.9 µM) | 0.25 | 82.2 | 6310 | 11000 | 0.000142 |
